Experimental data taken from patent US10610522B2, “Methods for retreating irritable bowel syndrome (IBS)” (Salix Pharmaceuticals, Inc., priority 2014, dated 2020).
“And” between values parts separate entries of the source, which are not always exact repeats. Equal values may be shown once.

Experiments:
[1] = tested on: non-constipation IBS; test: Study 1 (TARGET 1): rifaximin 550 mg TID 14 days vs placebo in non-C IBS, 10-week follow-up; type: in vivo, human
Description: A measure of efficacy is based on subjects' answers to the Weekly Subject Global Assessment (SGA) questions over the study duration in relation to their IBS symptoms.
Additionally subjects having a stool consistency score of <4 and at least a 1 point reduction in average daily IBS score were identified. […]
In TARGET 1 and 2, the primary endpoint was the proportion of patients who achieved adequate relief of IBS symptoms for at least 2 of 4 weeks during the month following 14 days of treatment. Adequate relief was defined as a response of “yes” to the following weekly Subject Global Assessment (SGA) question: “In regards to your IBS symptoms, compared to the way you felt before you started study medication, have you, in the past 7 days, had adequate relief of your IBS symptoms? [Yes/No]”
The key secondary endpoint was the proportion of patients who achieved adequate relief of IBS-related bloating for at least 2 of 4 weeks during the month following 2 weeks of treatment. Adequate relief of IBS-related bloating was defined as a response of “yes” to the following weekly (every 7 days) SGA question: “In regards to your IBS symptom of bloating, compared to the way you felt before you started study medication, have you, in the past 7 days, had adequate relief of your IBS symptom of bloating?
The trials examined a composite endpoint which defined responders by IBS-related abdominal pain and stool consistency measures. Patients were responders if they experienced a ≥30% decrease from baseline in abdominal pain for ≥2 weeks during the month following 2 weeks of treatment. […] Patients were monthly responders if they met criteria for BOTH abdominal pain and stool consistency ≥2 weeks per month. […] (See Table 60.)

[2] = Crossover drug interaction study: oral cyclosporine 600 mg on pharmacokinetics of single-dose rifaximin 550 mg; type: in vivo, human
Protocol: Eligible subjects were healthy men and women 18 to 45 years of age. […] The 2 dosing periods were separated by 7 days. […] Subjects underwent a supervised fast overnight (for >8 hours) before dosing and for 4 hours after dosing, though water was permitted ad libitum. Subjects remained at the clinical research unit from Day 0 through the morning of Day 3, and from Day 7 through Day 10. A follow-up phone contact was made 3 (+1) days after discharge, which concluded their participation in the study. Study duration was up to 35 days, including a 21-day screening window, dosing on Day 1, a 7-day washout period, dosing on Day 8, discharge from the clinic on Day 10, and a 3 (+1) day follow-up period after discharge.

[3] = target: T1, cytochrome P450 1A2 (Homo sapiens, UniProt P05177); test: In vitro cytochrome P450 inhibition; type: biochemical; conditions: 2 to 200 ng/mL
T1 sequence (P05177 1-516): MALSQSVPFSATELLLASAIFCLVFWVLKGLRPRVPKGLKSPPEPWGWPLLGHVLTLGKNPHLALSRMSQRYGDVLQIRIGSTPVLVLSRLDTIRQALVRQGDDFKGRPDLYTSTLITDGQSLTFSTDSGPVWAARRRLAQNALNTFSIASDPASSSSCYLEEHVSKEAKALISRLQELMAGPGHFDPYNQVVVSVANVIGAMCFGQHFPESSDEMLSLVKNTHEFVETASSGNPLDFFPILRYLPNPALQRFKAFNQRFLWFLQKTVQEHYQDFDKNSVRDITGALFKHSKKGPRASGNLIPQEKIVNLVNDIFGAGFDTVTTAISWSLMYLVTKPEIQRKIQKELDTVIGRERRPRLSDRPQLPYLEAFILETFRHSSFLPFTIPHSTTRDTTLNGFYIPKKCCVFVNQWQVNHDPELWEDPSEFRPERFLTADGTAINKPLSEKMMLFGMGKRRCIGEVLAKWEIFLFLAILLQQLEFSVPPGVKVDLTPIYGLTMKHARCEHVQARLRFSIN

[4] = target: cytochrome P450 2C19 (Homo sapiens, UniProt P33261); test: In vitro cytochrome P450 inhibition; type: biochemical; conditions: 2 to 200 ng/mL
cytochrome P450 2C19, sequence (P33261 whole entry): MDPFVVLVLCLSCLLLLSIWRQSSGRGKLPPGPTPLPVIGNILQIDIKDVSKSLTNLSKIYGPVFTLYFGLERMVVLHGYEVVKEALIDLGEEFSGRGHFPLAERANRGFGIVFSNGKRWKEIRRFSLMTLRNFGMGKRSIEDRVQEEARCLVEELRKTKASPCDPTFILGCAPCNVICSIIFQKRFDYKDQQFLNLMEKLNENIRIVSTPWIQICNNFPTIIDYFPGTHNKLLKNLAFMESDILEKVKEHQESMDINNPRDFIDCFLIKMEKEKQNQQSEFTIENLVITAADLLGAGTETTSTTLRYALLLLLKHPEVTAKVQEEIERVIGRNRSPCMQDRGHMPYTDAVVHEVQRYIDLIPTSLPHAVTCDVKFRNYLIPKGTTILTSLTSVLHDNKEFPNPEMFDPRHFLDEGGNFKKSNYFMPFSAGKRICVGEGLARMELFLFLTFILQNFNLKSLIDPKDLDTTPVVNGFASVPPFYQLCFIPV

[5] = Study 1, at least 2 weeks during PEP
[6] = TARGET 1, month following two weeks of treatment, 550 mg TID, N = 309
[7] = both sexes, human, plasma, oral
[8] = both sexes, human, plasma, oral, 550 mg

For `CO[C@H]1/C=C/O[C@@]2(C)Oc3c(C)c(O)c4c(O)c(c5c(nc6cc(C)ccn65)c4c3C2=O)NC(=O)/C(C)=C\C=C\[C@H](C)[C@H](O)[C@@H](C)[C@@H](O)[C@@H](C)[C@H](OC(C)=O)[C@@H]1C` [Rifaximin, (2S,16Z,18E,20S,21S,22R,23R,24R,25S,26S,27S,28E)-5,6,21,23,25 Pentahydroxy-27-methoxy-2,4,11,16,20,22,24,26-octamethyl-2,7-(epoxypentadeca-(1,11,13)trienimino) benzofuro (4,5-e) pyrido(1,2-a) benzimidazole-1,15(2H)-dione,25-acetate], the “IBS symptom of bloating: adequate relief at least 2 out of 4 weeks during weeks 3 through 6 (weekly question)” value ([1]; Study 1 / TARGET 1) was 40%, the “Global IBS symptoms: adequate relief at least 2 out of 4 weeks during weeks 3 through 6 (weekly question)” value ([1]; Study 1 / TARGET 1, 550 mg TID 14 d) was 41% and 31% vs 41% and the “Responders: abdominal pain reduction of 1 point in weekly mean” value [1, 5] was 52%. For the same compound, the “Responders: abdominal pain reduction of 1 point in weekly median” value [1, 5] was 63%, the “Responders: abdominal pain reduction of 2 point in mean” value [1, 5] was 26% and the “Responders: abdominal pain reduction of 2 point in median” value [1, 5] was 37%. The “Responders: abdominal pain reduction of 3 point in mean” value [1, 5] was 6% vs 7%, the “Responders: abdominal pain reduction of 3 point in median” value [1, 5] was 22% and the “Responders: daily abdominal pain < 2 for at least 50% of days in a week” value [1, 5] was 40%. The “Responders: overall reduction of mean weekly abdominal pain by >= 25%” value [1, 5] was 56%, the “Responders: overall reduction of mean weekly abdominal pain by >= 50%” value [1, 5] was 36% and the “Responders: overall reduction of mean weekly abdominal pain by >= 75%” value [1, 5] was 14%. For the same compound, the “Responders: overall reduction of median weekly abdominal pain by >= 25%” value [1, 5] was 63%, the “Responders: overall reduction of median weekly abdominal pain by >= 50%” value [1, 5] was 44% and the “Responders: overall reduction of median weekly abdominal pain by >= 75%” value [1, 5] was 23%. For the same compound, the “Abdominal Pain Responders: %” value [1, 6] was 51%, the “Abdominal Pain Responders: n” value [1, 6] was 159 and the “Abdominal Pain and Stool Consistency Responders: %” value [1, 6] was 47%. The “Abdominal Pain and Stool Consistency Responders: n” value [1, 6] was 144, the “Adequate Relief of IBS Symptoms: %” value [1, 6] was 41% and the “Adequate Relief of IBS Symptoms: n” value [1, 6] was 126. For the same compound, the “Adequate Relief of IBS-Related Bloating: %” value [1, 6] was 40%, the “Adequate Relief of IBS-Related Bloating: n” value [1, 6] was 122 and the “Stool Consistency Responders: %” value [1, 6] was 79%. For the same compound, the “Stool Consistency Responders: n” value [1, 6] was 244, the “Monthly responders for abdominal pain (≥30% decrease) and stool consistency (score <4)” value ([1]; TARGET 1, ≥2 weeks in month following 2 weeks of treatment) was 47% and the Tmax [2, 7] was 2 h. The half-life [2, 7] was 6.61 h, the AUC(0-inf) [2, 8] was 2.53 ng·h/mL and the Cmax [2, 8] was 0.48 ng/mL. For the same compound, the Tmax [2, 8] was 1 h, the half-life [2, 8] was 2.86 h and the “Increase in rifaximin mean AUC on co-administration of cyclosporine” value ([2]; healthy subjects) was 124 fold. For the same compound, the “Increase in rifaximin mean Cmax on co-administration of cyclosporine” value ([2]; healthy subjects) was 83 fold, the “Inhibition of cytochrome P450 1A2” value [3] was “does not inhibit” and the “Inhibition of cytochrome P450 2C19” value [4] was “does not inhibit”.
